A short description of data set [1]: Plasma pharmacokinetics, each drug alone and in combination. To be noted: selumetinib + dacarbazine arm.
From the text: When more than one maximum occurred, the reported value was assigned to the first occurrence.
The nature of data set [2]: Dose-limiting toxicity and maximum tolerated dose, phase I dose escalation. It is filed as in vivo, human (patients with advanced solid tumors). The text has this: Dose-limiting toxicities (DLTs) in the study were defined as those related to treatment and occurring within the first 28 days of therapy. Hematologic DLTs were defined as afebrile grade 4 neutropenia for >5 days, grade 4 neutropenia associated with fever, or grade 4 thrombocytopenia. Non-hematological DLTs were defined as any ≥ grade 3 adverse event (AE) for >7 days that could not be controlled to grade ≤2 with appropriate treatment.
In part B (dose expansion) of the study, an additional 12 evaluable patients received treatment at the combination MTDs.

For data set [3] the following is noted: cited from earlier work.

Take `CN(C)/N=N/c1[nH]cnc1C(N)=O` [Dacarbazine]: in data set [1], the “Pharmacokinetic parameters administered alone vs in combination” value was “similar” and the “Plasma concentration-time profiles administered alone vs in combination” value was “similar”.

For `Cn1cnc2c(F)c(Nc3ccc(Br)cc3Cl)c(C(=O)NOCCO)cc21` [Selumetinib], the MTD of selumetinib in data set [2] (in combination with dacarbazine 1000 mg/m^2 every 21 days) is listed as 75 mg BID; in data set [2] (in combination with docetaxel 75 mg/m^2 every 21 days), 75 mg BID; in data set [2] (plus docetaxel with ppG-CSF, defined in part A), 75 mg BID; in data set [2] (with docetaxel 75 mg/m^2 without ppG-CSF) it was 75 mg BID. Further, the “recommended phase II dose of selumetinib” value in data set [2] (plus docetaxel without ppG-CSF) stood at 75 mg BID. Moreover, the “recommended dose for selumetinib monotherapy” value in data set [3] (monotherapy) is 75 mg twice daily (BID). Also, in data set [3] (selumetinib monotherapy), the “monotherapy MTD” value was 75 mg BID. Moreover, the “AUC(0–8)” value in data set [1] (plasma, dosed in combination, selumetinib 75 mg (N = 15), geometric mean (% CV)) was 4544 (45.42) ng•h/mL.

Values taken from PMC5340007 (BMC Cancer, 2017).
